Measured values: publication doi:10.1101/2023.03.24.534094v2 (biorxiv, 2023)
Read-outs that look alike come from different tables or passages of the source. Each block holds one compound with its values, some of them ahead of it.

How the values were obtained:
Assay in all cases: biochemical
MAP2K4 = target: T1, MAP2K4 (Homo sapiens, UniProt P45985)
T1 sequence (P45985 1-399): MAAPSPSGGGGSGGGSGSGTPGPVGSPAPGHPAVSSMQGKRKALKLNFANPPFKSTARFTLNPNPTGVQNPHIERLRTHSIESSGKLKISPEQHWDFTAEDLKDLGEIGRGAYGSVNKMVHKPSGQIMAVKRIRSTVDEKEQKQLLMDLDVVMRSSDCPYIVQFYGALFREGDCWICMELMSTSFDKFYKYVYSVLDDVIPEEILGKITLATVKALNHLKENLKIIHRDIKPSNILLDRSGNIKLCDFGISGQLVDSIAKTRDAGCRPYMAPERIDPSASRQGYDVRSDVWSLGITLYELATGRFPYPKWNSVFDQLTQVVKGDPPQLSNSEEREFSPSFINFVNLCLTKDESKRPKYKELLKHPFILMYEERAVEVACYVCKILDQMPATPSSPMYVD

EphB3 = target: T2, EphB3 (Homo sapiens, UniProt P54753)
T2 sequence (P54753 1-998): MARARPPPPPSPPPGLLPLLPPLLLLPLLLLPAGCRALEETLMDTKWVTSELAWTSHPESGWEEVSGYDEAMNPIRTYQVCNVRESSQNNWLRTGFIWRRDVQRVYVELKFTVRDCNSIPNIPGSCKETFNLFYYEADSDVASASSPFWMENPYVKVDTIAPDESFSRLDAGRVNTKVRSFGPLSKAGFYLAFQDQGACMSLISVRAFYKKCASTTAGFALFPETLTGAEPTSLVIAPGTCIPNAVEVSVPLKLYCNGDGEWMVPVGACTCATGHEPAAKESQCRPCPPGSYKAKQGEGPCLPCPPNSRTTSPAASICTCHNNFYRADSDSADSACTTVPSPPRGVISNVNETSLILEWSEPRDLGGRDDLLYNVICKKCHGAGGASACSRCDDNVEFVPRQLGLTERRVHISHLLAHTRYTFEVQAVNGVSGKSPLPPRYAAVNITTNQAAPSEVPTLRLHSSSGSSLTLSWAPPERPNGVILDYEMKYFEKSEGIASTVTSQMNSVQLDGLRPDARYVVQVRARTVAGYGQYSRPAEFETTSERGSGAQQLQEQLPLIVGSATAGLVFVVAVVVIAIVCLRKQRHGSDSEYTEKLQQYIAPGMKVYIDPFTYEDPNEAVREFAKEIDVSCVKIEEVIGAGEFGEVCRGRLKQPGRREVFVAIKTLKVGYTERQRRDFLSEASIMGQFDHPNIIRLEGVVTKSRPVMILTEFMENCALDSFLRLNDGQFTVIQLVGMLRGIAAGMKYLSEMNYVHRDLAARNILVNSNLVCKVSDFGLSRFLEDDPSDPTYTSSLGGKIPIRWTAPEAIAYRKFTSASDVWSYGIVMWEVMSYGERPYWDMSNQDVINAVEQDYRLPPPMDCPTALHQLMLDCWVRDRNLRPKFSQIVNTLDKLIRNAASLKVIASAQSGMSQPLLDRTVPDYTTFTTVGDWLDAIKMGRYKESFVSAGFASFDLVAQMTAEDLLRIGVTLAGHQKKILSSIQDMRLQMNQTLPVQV

EphB1 = target: T3, EphB1 (Homo sapiens, UniProt P54762)
T3 sequence (P54762 1-984): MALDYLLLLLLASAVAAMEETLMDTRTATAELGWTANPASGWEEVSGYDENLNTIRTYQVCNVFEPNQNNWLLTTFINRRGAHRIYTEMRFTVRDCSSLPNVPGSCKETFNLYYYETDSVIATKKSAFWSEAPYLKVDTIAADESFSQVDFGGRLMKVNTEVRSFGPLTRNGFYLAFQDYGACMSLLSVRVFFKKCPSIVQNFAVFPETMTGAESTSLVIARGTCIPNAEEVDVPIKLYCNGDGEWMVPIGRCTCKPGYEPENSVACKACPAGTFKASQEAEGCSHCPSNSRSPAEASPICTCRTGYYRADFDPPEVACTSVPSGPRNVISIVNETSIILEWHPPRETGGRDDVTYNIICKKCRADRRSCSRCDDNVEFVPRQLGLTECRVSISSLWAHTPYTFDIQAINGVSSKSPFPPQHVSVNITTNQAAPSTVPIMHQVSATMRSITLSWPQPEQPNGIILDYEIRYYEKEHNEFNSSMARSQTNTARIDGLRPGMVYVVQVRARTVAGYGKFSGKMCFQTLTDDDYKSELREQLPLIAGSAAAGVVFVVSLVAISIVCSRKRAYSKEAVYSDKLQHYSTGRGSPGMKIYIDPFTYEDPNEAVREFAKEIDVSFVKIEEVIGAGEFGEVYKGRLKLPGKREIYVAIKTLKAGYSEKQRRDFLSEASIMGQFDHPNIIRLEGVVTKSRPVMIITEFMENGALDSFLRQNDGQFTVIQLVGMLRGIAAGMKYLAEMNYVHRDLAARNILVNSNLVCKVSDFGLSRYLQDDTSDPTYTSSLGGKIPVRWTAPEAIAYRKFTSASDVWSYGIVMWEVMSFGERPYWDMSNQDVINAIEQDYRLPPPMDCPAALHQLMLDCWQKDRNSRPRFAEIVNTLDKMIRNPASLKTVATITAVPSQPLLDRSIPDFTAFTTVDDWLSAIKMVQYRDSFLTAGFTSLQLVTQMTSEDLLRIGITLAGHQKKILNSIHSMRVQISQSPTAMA

DYRK1A = DYRK1A (Homo sapiens, UniProt Q13627)

Compound: CNc1ncc2cc(-c3cc(F)c(-c4cccc(C)n4)cc3F)c(=O)n(CCCCN)c2n1 [compound 12, 8-(4-Aminobutyl)-6-(2,5-difluoro-4-(6-methylpyridin-2-yl)phenyl)-2-(methylamino)pyrido[2,3-d]pyrimidin-7(8H)-one]
- ΔTm at 10 µM (MAP2K4; read-out: dTm 12): 5.4 °C
- ΔTm at 10 µM (EphB3; read-out: dTm 12): 2.5 °C
- ΔTm at 10 µM (EphB1; read-out: dTm 12): 3.5 °C
- ΔTm at 10 µM (DYRK1A; read-out: dTm 12): 0.1 °C

Compound: CNc1ncc2cc(-c3cc(Br)ccc3Br)c(=O)n(CCCCN)c2n1 [compound 11, 8-(4-Aminobutyl)-6-(2,5-dibromophenyl)-2-(methylamino)pyrido[2,3-d]pyrimidin-7(8H)-one]
- ΔTm at 10 µM (MAP2K4; read-out: dTm 11): 3 °C
- ΔTm at 10 µM (EphB3; read-out: dTm 11): 3 °C
- ΔTm at 10 µM (EphB1; read-out: dTm 11): 4.7 °C
- ΔTm at 10 µM (DYRK1A; read-out: dTm 11): -0.3 °C

The next lines start with the values.

- ΔTm at 10 µM (MAP2K4; read-out: dTm 9): 2.3 °C
- ΔTm at 10 µM (EphB3; read-out: dTm 9): 2.3 °C
- ΔTm at 10 µM (EphB1; read-out: dTm 9): 3.3 °C
- ΔTm at 10 µM (DYRK1A; read-out: dTm 9): -0.5 °C
Compound: CNc1ncc2cc(-c3cc(C(F)(F)F)ccc3Cl)c(=O)n(CCCCN)c2n1 [compound 9, 8-(4-Aminobutyl)-6-(2-chloro-5-(trifluoromethyl)phenyl)-2-(methylamino)pyrido[2,3-d]pyrimidin-7(8H)-one]

- ΔTm at 10 µM (MAP2K4; read-out: dTm 10): 3 °C
- ΔTm at 10 µM (EphB3; read-out: dTm 10): 4.6 °C
- ΔTm at 10 µM (EphB1; read-out: dTm 10): 5.5 °C
- ΔTm at 10 µM (DYRK1A; read-out: dTm 10): -0.6 °C
Compound: CNc1ncc2cc(-c3cc(Cl)ccc3Br)c(=O)n(CCCCN)c2n1 [compound 10, 8-(4-Aminobutyl)-6-(2-bromo-5-chlorophenyl)-2-(methylamino)pyrido[2,3-d]pyrimidin-7(8H)-one]

- ΔTm at 10 µM (MAP2K4; read-out: dTm 8): 2.7 °C
- ΔTm at 10 µM (EphB3; read-out: dTm 8): 4.1 °C
- ΔTm at 10 µM (EphB1; read-out: dTm 8): 5.3 °C
- ΔTm at 10 µM (DYRK1A; read-out: dTm 8): -0.5 °C
Compound: CNc1ncc2cc(-c3cc(Cl)ccc3Cl)c(=O)n(CCCCN)c2n1 [compound 8, 8-(4-Aminobutyl)-6-(2,5-dichlorophenyl)-2-(methylamino)pyrido[2,3-d]pyrimidin-7(8H)-one]
